{"source": "patent US12303556B2", "about": "“Peptides for treatment and prevention of diabetes and associated disorders” (UNIVERSITE DE STRASBOURG, priority 2018, dated 2025)", "key": {"[1]": {"test_system": "PKC", "test": "PKC kinase activity in human adipocytes", "assay_type": "cell-based", "conditions": "for PKC kinase activity at 25 μg peptide per well: 25 μg per well, 30 minutes, positive control insulin", "method": "FIG. 1. PKC kinase activity in human adipocytes induced by peptides from alpha PKC. Primary human adipocytes were cultured overnight without insulin and on the next day, the different conditions were used with for each peptide 25 μg of peptide ECTMVEKKVLALL (SEQ ID NO: 50) or 25 ug of peptide SVEWWAYGLLYEMLA (SEQ ID NO: 51) was added to each well and incubated for 30 minutes prior to measuring the PKC activity. Vehicle which is saline solution was the negative control and the positive control used was insulin at […].\nFIG. 3. PATAS in vitro dose response to trigger PKC activity in the human adipocytes. PATAS in vitro dose response to trigger PKC activity in the human adipocytes after a 30 minutes incubation of human primary adipocyte with PATAS added to the culture medium. n=5 per group and PATAS quantities are expressed as μg per well.\nTwo other peptides from PKC alpha, namely ECTMVEKKVLALL (SEQ ID NO: 50) and SVEWWAYGLLYEMLA (SEQ ID NO: 51) have also been tested for their effect on PKC kinase activity.\nFor PKC kinase activity tests, we used ready to use mature primary human adipocytes originating from omental adipose tissue were purchased from Zenbio in either a 96-well or a 6-well plate format (Catalog #: OA-1096-3 or OA-1006-3). The PKC kinase activity Assay kit (Catalog #: 139437) and procedures were used according to manufacturer's protocol."}, "[2]": {"test_system": "DIO glucose intolerant male mice", "test": "Glucose tolerance test (ipGTT) in DIO glucose intolerant male mice", "assay_type": "in vivo", "conditions": "single dose 25 micrograms per mouse, ipGTT at day 6, high fat/high glucose diet", "method": "(FIG. 5A) Glucose tolerance: Mice were injected with either vehicle (saline solution), or vehicle+PATAD 417 or vehicle+ADPIF (CPC peptide A-MRO) at day 0. 6 days later (D6) the mice were fasted for 4 hours and at 0 minute received a […] glucose injection to perform the ipGTT. Glucose levels were measured from tail blood every 30 minutes. Besides the control mice which were fed on chow diet (CTL Chow diet), all the other mice were fed on a high fat/high glucose diet.\nMice were injected with a single dose (25 micrograms per mouse) of either scramble peptide or PATAD or ADPIF/PATAS. These are results obtained from series of glucose tolerance test (ipGTT) in DIO glucose intolerant male mice (FIGS. 5A and B).\nAt day 0: all mice were fasted for 4 hours in the morning. At 1:00 p.m., control mice received one injection of (body weight in grams)×10 […] of 22% glucose solution ([…] injection). Treated mice were injected with either 25 ug (2.5 uL of mother solution) of tested peptide dissolved in (body weight in grams)×10 of the 22% glucose solution. Blood glucose levels were measured from tail vein blood at every 30 minutes intervals and plotted to determine the effect of the different treatments on the area under the curve."}, "[3]": {"test_system": "primary human mature adipocytes", "test": "Glucose uptake assay in human mature adipocytes (2-DG, Abcam kit)", "assay_type": "cell-based", "conditions": "30 minutes with 2-DG, without insulin, 2.5 μL of peptide at 10 μg/μL in 200 μL; N=8; compared with insulin", "method": "FIG. 4: Glucose uptake in human primary mature adipocyte. N=8 per group.\nHuman primary preadipocyte were cultured in a 96-well plate and differentiated in mature human adipocytes. After 3 weeks of culture post adipogenesis, the adipocytes were incubated in culture medium without insulin for 2 hours. Following these 2 hours of insulin fasting, the media were changed back wither either medium without insulin (−INS) or medium with insulin (+INS) or medium with ADPIF (PATAS) for 30 minutes together with 2-DG, a glucose analogue used to determine glucose uptake in the Abcam kit. Following the manufacturer's protocol, we then measured the glucose uptake in 8 wells per condition and calculated the mean that was then plotted in the histogram with the standard error of the mean for the error bars shown in […] FIG. 4.\nHuman white visceral preadipocytes (Catalog #: C-12732; PromoCell) were purchased. The preadipocytes were seeded according to manufacturer's protocol and cultured in the Preadipocyte growth medium (Catalog #: C-27410; PromoCell) to confluence. Adipogenic differentiation was induced by changing the medium to the Preadipocyte Differentiation Medium (Catalog #: C-27436; PromoCell) for 2 days. After the differentiation phase, the medium was finally changed to the Adipocyte Nutrition medium (Catalog #: C-27438; PromoCell). […]"}, "[4]": {"test_system": "db/db male mice", "test": "ipGTT in db/db (BKS) diabetic mice", "assay_type": "in vivo", "conditions": "2 mg/kg BW subcutaneous, ipGTT day 4 post-injection, 6-week-old db/db mice on chow diet", "method": "(FIG. 6A) Blood glucose excursion curve during ipGTT on day 4 post-PATAS subcutaneous injection (2 mg/kg BW PATAS dosing) in 6-week-old db/db male mice on chow diet Post 8 hours fasting. Glucose bolus (2 g/kg body weight) administered […] at T=Omin and the associated AUC histogram (n=10 mice per group Significance was set at *p-value≤0.05, **p-value≤0.01).\nPATAS/ADPIF's activity was tested in db/db on the BKS genetic background, diabetic mouse models. […] The mice received a weekly injection of PATAS/ADPIF or vehicle for another 3 weeks followed by another 4 weeks without any treatment while being constantly monitored. […]\nAt day 0: all mice were fasted for 4 hours in the morning. […] Blood glucose levels were measured from tail vein blood at every 30 minutes intervals and plotted to determine the effect of the different treatments on the area under the curve."}, "[5]": {"test_system": "glycated albumin", "test": "Glycated albumin in plasma in the STAM mice model (ELISA)", "assay_type": "in vivo", "conditions": "5 weekly subcutaneous injections of 25 ug per mouse, 6 mice per group, vs vehicle", "source_text": "FIG. 8. Effect of ADPIF on glycated albumin in plasma in the STAM mice model. Plasma of the treated mice from the Japanese STAMT model were used to measure circulating glycated albumin levels using a commercially available kit. The results are presented in this figure as the mean value of 6 mice per group presented with the standard error of the mean for the error bars.\nGlycated albumin is a well-recognized and robust parameter to determine episodes of hyperglycemia in vivo. We therefore used the plasma from the STAMT mice that were treated for 5 weeks with weekly ADPIF/PATAS's injections at 25 ug each compared to control groups which were injected with saline.\nFor the non-obese STAM mouse model study, C57BL/6 mice (14-day-pregnant female) were obtained from Japan SLC, Inc. (Japan). All animals used in the study were housed and cared for in accordance with the Japanese Pharmacological Society Guidelines for Animal Use. The animals were maintained in a SPF facility under controlled conditions of temperature (23±2° C.), humidity (45±10%), lighting (12-hour artificial light and dark cycles; light from 8:00 to 20:00) and air exchange. The animals were housed in TPX cages (CLEA Japan) with a maximum of 3 mice per cage. Sterilized Paper-Clean (Japan SLC) was used for bedding and replaced once a week. […]"}, "[6]": {"test_system": "Bbs10-/- mice", "test": "ipGTT in Bbs10-/- mice (Bardet Biedl syndrome model)", "assay_type": "in vivo", "conditions": "2 mg/kg body weight subcutaneous, 3 days post-injection", "source_text": "FIGS. 7A-7B. PATAS is effective in improving glucose intolerance in a genetic mouse model for a rare disease associated with obesity and type 2 diabetes, the Bardet Biedl syndrome (BBS). BBS mice were on chow diet fed ad libitum. n=4 mice with a cross-over experimental set-up with ipGTT performed before injection and 3 days post-injection. Knockout mouse model for the BBS10 gene (Bbs10^−/−) were generated and spontaneously became obese as described in literature.\nKnockout mouse model for the BBS10 gene (Bbs10^−/−) were generated and spontaneously became obese as described in literature.\nFor the obese mouse model with overt type 2 diabetes mouse, the BKS (D)-Leprdb/J, Stock No: 010803 (were purchased from the Jax Labs. Bbs10 knockout mice were generated by Institute Mouse Clinic (ICS) in Strasbourg and have been previously described in literature. All mice were on a C57/BL6 genetic background. All animals were housed in a temperature and humidity-controlled facility, with a 12 h-light/12 h-dark cycle. The BKS (D)-Leprdb/J mice were fed with chow diet (LM-485; Harlan Teklad Premier Laboratory Diets) whereas the Bbs knockout mice were fed with […] and tap water ad libitum. For ipGTT and ipITT, mice were fasted for 6 hours before start of experiment. Insulin 0.75 U/kg was injected i.v. via the tail vein. Blood glucose and samples were collected from the tail. […]"}, "[7]": {"test_system": "FATP2", "test": "FATP isoform expression in subcutaneous white adipose tissue of db/db mice", "assay_type": "in vivo", "conditions": "4 weekly PATAS injections then 4 weeks without treatment, n=6, GAPDH reference, vs control mice", "method": "(FIG. 6B) Following 4 weekly PATAS injections, and another 4 weeks without treatment, db/db mice sWAT. Normalized expression levels for the six FATP isoforms (FATP 1-6) in subcutaneous white adipose tissue (sWAT) were determined. n=6 per group with GAPDH as reference gene.\nPATAS/ADPIF's activity was tested in db/db on the BKS genetic background, diabetic mouse models. […] The mice received a weekly injection of PATAS/ADPIF or vehicle for another 3 weeks followed by another 4 weeks without any treatment while being constantly monitored.\nTotal RNA was prepared from the different tissues and cells using a RiboPure™ kit (Catalog #: AM1924; Ambion) followed by a DNAse treatment with the TURBO DNA-free™ (Catalog #: AM 1907; Ambion). RNA integrity was assessed by gel electrophoresis and RNA concentration by Eppendorf Biophotometer Plus with the Hellma® Tray Cell (Catalog #: 105.810-uvs; Hellma). Reverse transcription of 1 μg total RNA to cDNA was performed using the BioRadiScript™ cDNA synthesis kit (Catalog #: 170-8891; BioRad). Real-time quantitative polymerase chain reaction amplification was performed in a BioRad CFX96 TM Real-Time System using the iQ™ SYBR® Green Supermix (Catalog #: 170-8886; BioRAd) and primer sets optimized for tested targets for SYBR Green-based real-time PCR for the real-time PCR. […]"}}, "note": "No end group written: not given here.", "data": [{"substance": "ECTMVEKKVLALL (hydrocarbon staple; segment of kinase domain of alphaPKC) [Peptide from PKC alpha with M and A carrying the stapling]", "values": [{"measurement": "PKC kinase activity at 25 μg peptide per well", "setting": "[1]", "value": "able to increase PKC kinase activity"}]}, {"substance": "SVEWWAYGLLYEMLA (staple (positions not given here); not fully specified; also: hydrocarbon staple, positions not given here) [Peptide from PKC alpha with A and M carrying the stapling]", "values": [{"measurement": "PKC kinase activity at 25 μg peptide per well", "setting": "[1]", "value": "able to increase PKC kinase activity"}]}, {"substance": "VE CTM-[2-(4-pentenyl) alanine]-EK RVL A-[2-(4-pentenyl) alanine]-L DKP PFL TQL HS [PATAD, reference compound]", "values": [{"measurement": "area under the curve (AUC) of glucose tolerance test", "setting": "[2]", "value": "drop in the AUC"}]}, {"substance": "VECTTREKEVLASLDKAAFLTQLHS (staple (positions not given here); not fully specified (bridges); also: hydrocarbon staple via alkenyl Arg and Ser, positions not given here) [ADPIF/PATAS, Stapled peptide wherein R and S carry the stapling, being preferably 2-(7-octenyl)arginine and 2-(4-pentenyl)serine]", "values": [{"measurement": "glucose uptake (glucose absorption)", "setting": "[3]", "value": "as effective as Insulin"}, {"measurement": "glucose intolerance / hyperglycemia (ipGTT)", "setting": "[4]", "value": "able to prevent hyperglycemia"}, {"measurement": "glucose intolerance / hyperglycemia (ipGTT)", "setting": "[4]; listed as PATAS/ADPIF", "value": "significant improvement of the glucose intolerance"}, {"measurement": "glycated albumin levels in plasma", "setting": "[5]", "value": "significant drop in glycated albumin"}, {"measurement": "glycated albumin levels in plasma", "setting": "[5]; listed as ADPIF", "value": "significant drop in glycated albumin levels"}, {"measurement": "glucose tolerance (ipGTT)", "setting": "[6]", "value": "improved glucose tolerance"}, {"measurement": "ipGTT area under the curve (AUC)", "setting": "[6]; before injection ~30000, n=4", "value": "~16000", "unit": "mg·min/dL"}, {"measurement": "area under the curve (AUC) of glucose tolerance test", "setting": "[2]", "value": "more effective than PATAD to reduce the AUC"}, {"measurement": "glucose intolerance (ipGTT)", "setting": "[2]", "value": "more active than PATAD peptide"}, {"measurement": "PKC activity, dose response", "setting": "[1]; 30 minutes incubation, PATAS quantities in μg per well, n=5", "value": "increasing PKC activity with increasing ADPIF/PATAS quantity"}, {"measurement": "Fatp2 expression levels in adipose tissue (sWAT)", "setting": "[7]", "value": "able to decrease the expression of FATP2"}, {"measurement": "Fatp2 expression levels in adipose tissue (sWAT)", "setting": "[7]; listed as PATAS", "value": "specific and significant drop in Fatp2 expression levels"}]}]}
